Reference: patent publication US9732075B2, “Benzimidazole-proline derivatives” (IDORSIA PHARMACEUTICALS LTD, priority 2012, dated 2017)

Key:
human orexin-1 receptor = human orexin-1 receptor (Homo sapiens (Human), UniProt O43613); test: In vitro assay: intracellular calcium measurements (FLIPR), antagonistic activity; format: cell-based; conditions: CHO cells expressing human orexin-1 receptor, orexin-A agonist, geometric mean, read-out: IC50 Ox1
Outline: (§1)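 In this FLIPR calcium assay, antagonists were given 120 min on CHO cells with human OX1 or OX2 receptor before orexin-A (3 nM final) was added. Peak fluorescence was measured at 1 s intervals against the uninhibited agonist peak, and IC50s were averaged geometrically.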

human orexin-2 receptor = human orexin-2 receptor (Homo sapiens (Human), UniProt O43614); test: as above; format: cell-based; conditions: CHO cells expressing human orexin-2 receptor, orexin-A agonist, geometric mean, read-out: IC50 Ox2
Sequence of human orexin-2 receptor (O43614 whole entry): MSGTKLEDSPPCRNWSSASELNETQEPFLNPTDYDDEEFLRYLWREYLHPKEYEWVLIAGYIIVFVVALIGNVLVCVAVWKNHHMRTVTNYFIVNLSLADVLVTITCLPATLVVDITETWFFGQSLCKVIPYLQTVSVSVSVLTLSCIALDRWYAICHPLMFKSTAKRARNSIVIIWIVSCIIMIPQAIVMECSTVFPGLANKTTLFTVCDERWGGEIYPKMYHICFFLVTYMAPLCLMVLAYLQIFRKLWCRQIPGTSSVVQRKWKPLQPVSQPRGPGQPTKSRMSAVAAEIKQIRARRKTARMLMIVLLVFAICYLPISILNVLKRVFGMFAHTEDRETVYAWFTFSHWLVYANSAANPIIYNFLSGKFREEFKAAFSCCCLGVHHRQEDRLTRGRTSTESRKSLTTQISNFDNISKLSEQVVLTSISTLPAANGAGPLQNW
Outline: as §1

Sequence of human orexin-1 receptor (O43613 whole entry): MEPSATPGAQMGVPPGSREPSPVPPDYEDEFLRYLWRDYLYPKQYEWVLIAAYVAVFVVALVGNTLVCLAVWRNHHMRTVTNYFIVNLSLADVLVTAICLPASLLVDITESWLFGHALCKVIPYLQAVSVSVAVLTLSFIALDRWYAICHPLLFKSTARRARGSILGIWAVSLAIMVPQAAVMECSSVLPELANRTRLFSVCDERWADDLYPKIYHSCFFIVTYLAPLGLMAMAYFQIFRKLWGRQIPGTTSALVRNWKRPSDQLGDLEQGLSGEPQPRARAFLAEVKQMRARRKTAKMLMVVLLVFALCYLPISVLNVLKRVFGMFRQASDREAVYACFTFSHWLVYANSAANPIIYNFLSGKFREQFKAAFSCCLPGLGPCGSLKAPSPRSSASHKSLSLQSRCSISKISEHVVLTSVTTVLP

Structure (SMILES) | IC50 (human orexin-1 receptor) [nM] | IC50 (human orexin-2 receptor) [nM]
C=C1C[C@@H](c2nc3cc(OC)ccc3[nH]2)N(C(=O)c2nc(C3CC3)sc2-c2cccc(Br)c2)C1 [Ex. 6.28] | 20 | 15
C=C1C[C@@H](c2nc3cc(OC)ccc3[nH]2)N(C(=O)c2nc(N3CCCC3)sc2-c2cccc(F)c2)C1 [Ex. 6.29] | 69 | 92
C=C1C[C@@H](c2nc3cc(OC)ccc3[nH]2)N(C(=O)c2nc(C)sc2-c2cccc(C(F)(F)F)c2)C1 [Ex. 6.30] | 203 | 31
C=C1C[C@@H](c2nc3cc(OC)ccc3[nH]2)N(C(=O)c2nc(C3CC3)sc2-c2cccc(OC)c2)C1 [Ex. 6.31] | 41 | 22
C=C1C[C@@H](c2nc3cc(OC)ccc3[nH]2)N(C(=O)c2ncsc2-c2cccc(Cl)c2)C1 [Ex. 6.32] | 814 | 103
C=C1C[C@@H](c2nc3cc(OC)ccc3[nH]2)N(C(=O)c2nc(C)sc2-c2cccc(F)c2)C1 [Ex. 6.33] | 213 | 23
C=C1C[C@@H](c2nc3cc(OC)ccc3[nH]2)N(C(=O)c2nc(C)sc2-c2ccccc2Cl)C1 [Ex. 6.34] | 398 | 66
C=C1C[C@@H](c2nc3cc(OC)ccc3[nH]2)N(C(=O)c2nc(C3CC3)sc2-c2ccc(C)cc2)C1 [Ex. 6.35] | 146 | 80
C=C1C[C@@H](c2nc3cc(OC)ccc3[nH]2)N(C(=O)c2cc(C)sc2-c2ccc(C)c(C)c2)C1 [Ex. 6.36] | 15 | 2
C=C1C[C@@H](c2nc3cc(OC)ccc3[nH]2)N(C(=O)c2nc(C)sc2-c2cc(F)cc(F)c2)C1 [Ex. 6.37] | 422 | 45
C=C1C[C@@H](c2nc3cc(OC)ccc3[nH]2)N(C(=O)c2ccsc2-c2cccc(C)c2)C1 [Ex. 6.38] | 269 | 19
C=C1C[C@@H](c2nc3cc(OC)ccc3[nH]2)N(C(=O)c2ccsc2-c2ccc(C)c(C)c2)C1 [Ex. 6.39] | 106 | 9
C=C1C[C@@H](c2nc3c(C)cccc3[nH]2)N(C(=O)c2nc(C)sc2-c2ccccc2)C1 [Ex. 6.40] | 70 | 9
C=C1C[C@@H](c2nc3c(C)c(Cl)ccc3[nH]2)N(C(=O)c2nc(C)sc2-c2ccccc2)C1 [Ex. 6.41] | 4 | 2
C=C1C[C@@H](c2nc3c(C)c(Cl)ccc3[nH]2)N(C(=O)c2cc(C)ccc2-n2nccn2)C1 [Ex. 6.42] | 12 | 2
C=C1C[C@@H](c2nc3ccccc3[nH]2)N(C(=O)c2nc(C)sc2-c2cccc(Cl)c2)C1 [Ex. 6.43] | 368 | 62
C=C1C[C@@H](c2nc3c(C)cccc3[nH]2)N(C(=O)c2nc(C)sc2-c2cccc(Cl)c2)C1 [Ex. 6.44] | 10 | 2
C=C1C[C@@H](c2nc3c(C)c(Cl)ccc3[nH]2)N(C(=O)c2nc(C)sc2-c2cccc(Cl)c2)C1 [Ex. 6.45] | 1 | 1
C=C1C[C@@H](c2nc3ccc(OC)cc3[nH]2)N(C(=O)c2nc(C)sc2-c2ccc(C)c(C)c2)C1 [Ex. 6.46] | 30 | 4
C=C1C[C@@H](c2nc3c(C)c(C)ccc3[nH]2)N(C(=O)c2nc(C)sc2-c2ccc(C)c(C)c2)C1 [Ex. 6.47] | 6 | 1
C=C1C[C@@H](c2nc3c(OC)ccc(OC)c3[nH]2)N(C(=O)c2nc(C)sc2-c2ccc(C)c(C)c2)C1 [Ex. 6.48] | 14 | 7
C=C1C[C@@H](c2nc3c(SC)cccc3[nH]2)N(C(=O)c2nc(C)sc2-c2ccc(C)c(C)c2)C1 [Ex. 6.49] | 3 | 1
C=C1C[C@@H](c2nc3c(Br)cccc3[nH]2)N(C(=O)c2nc(C)sc2-c2ccc(C)c(C)c2)C1 [Ex. 6.50] | 5 | 1
C=C1C[C@@H](c2nc3c(Cl)cccc3[nH]2)N(C(=O)c2nc(C)sc2-c2ccc(C)c(C)c2)C1 [Ex. 6.51] | 8 | 3
